Source: patent US20260364080A1, “PYRAZOLO-PYRIMIDINONE COMPOUNDS FOR USE IN METHODS OF INHIBITING WEE1 A KINASE” (Acrivon Therapeutics, Inc., priority 2023, published 2026)

What was measured:
[1] = target: T1, Myt1 kinase (recombinant PMYT-1) (Homo sapiens, UniProt Q99640); test: Myt1 kinase binding assay (LanthaScreen Eu Kinase Binding Assay); conditions: 3 nM tracer 178, 2.5 nM PMYT-1, 1 nM Eu-labeled antibody; read-out: Myt1 kinase Binding IC50
T1 construct: full length PMYT-1 was expressed by baculovirus in insect cells; purchased Invitrogen A30984; host or cells: insect cells (baculovirus)
T1 sequence (Q99640 1-499): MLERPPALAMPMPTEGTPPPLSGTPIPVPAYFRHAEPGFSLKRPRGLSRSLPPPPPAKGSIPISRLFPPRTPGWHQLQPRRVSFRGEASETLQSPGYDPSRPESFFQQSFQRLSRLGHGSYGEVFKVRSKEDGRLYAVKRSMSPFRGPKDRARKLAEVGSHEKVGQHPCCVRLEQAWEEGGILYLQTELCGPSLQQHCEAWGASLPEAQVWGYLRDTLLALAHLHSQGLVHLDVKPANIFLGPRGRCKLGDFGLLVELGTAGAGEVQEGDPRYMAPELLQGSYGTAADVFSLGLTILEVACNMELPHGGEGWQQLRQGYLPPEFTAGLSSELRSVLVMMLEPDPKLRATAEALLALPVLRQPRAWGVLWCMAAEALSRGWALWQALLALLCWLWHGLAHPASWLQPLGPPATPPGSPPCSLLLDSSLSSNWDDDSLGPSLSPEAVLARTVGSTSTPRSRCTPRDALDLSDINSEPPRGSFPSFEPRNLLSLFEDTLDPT
Procedure, shortened: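 Compound binding to Myt1 kinase was assessed using the LanthaScreen Eu Kinase Binding Assay. This europium-based binding format was applied to quantify how strongly each compound bound to the Myt1 enzyme, and the binding affinity was reported for each compound as an IC50 value.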

[2] = target: T2, recombinant human Wee1A kinase (Homo sapiens, UniProt P30291); test: Wee1A kinase binding assay (LanthaScreen Eu time-resolved FRET); conditions: 30 nM tracer 178, 5 nM Wee1A kinase, 2 nM Eu-labeled antibody; 60 minutes at room temperature; read-out: Wee1A kinase Binding IC50
T2 construct: full length Wee1 kinase was expressed by baculovirus in insect cells; purchased Invitrogen PV3817; host or cells: insect cells (baculovirus)
Procedure, shortened: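 Full-length, baculovirus-expressed GST-tagged Wee1A (5 nM) was mixed with 2 nM Eu-anti-GST antibody, 30 nM kinase tracer 178 and compound (1% DMSO). Buffer was 50 mM HEPES pH 7.5, 10 mM MgCl2, 1 mM EGTA, 0.01% Brij-35, incubated 60 min at room temperature. TR-FRET 665/615 nm emission ratios from duplicates were curve-fitted.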

[3] = target: T3, Wee1A kinase (CDK1 Tyr15 phosphorylation in ACHN renal cell carcinoma cells) (Homo sapiens, UniProt P30291); test: High-content imaging of pCdk1 Y15, Wee1A kinase target engagement in ACHN cells; assay type: cell-based; conditions: 4 h treatment, nuclear positivity for pCdk1 Y15 vs DMSO control, read-out: CDK1 Tyr15 Phosphorylation EC50
T3 construct: pCDK1 Tyr15 immunofluorescence read-out
Procedure, shortened: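 EC50 values come from the per-well fraction of cells with nuclear pCdk1 Y15 staining, normalised to DMSO control, by automated immunofluorescence imaging. Cells were ACHN renal carcinoma, treated 4 h with compound at 7–5,000 nM or 0.3–200 nM.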

ACHN cells = test: Cell Titer Glo viability assay, ACHN cells; assay type: cell-based; conditions: Homo sapiens, 144 h, absolute EC50
Description: Each of an ACHN renal cell carcinoma cell line (ATCC) and a DAOY medulloblastoma cell line, and an A427 lung cancer line were cultured in Minimum Essential Medium Eagle supplemented with 10% fetal calf serum (Sigma), 1% Penicillin-Streptomycin and 10 mM HEPES buffer (HyClone). Cell cultures were kept in a humidified incubator at 37 °C and 5% CO2. Cells were routinely tested for Mycoplasma contamination.
ACHN cells, DAOY cells, or A427 cells were seeded at a density of 400, 250, or 500 cells per well respectively, in tissue culture treated 384 well plates (Corning Costar). After overnight incubation, cells were treated with drugs at concentrations ranging from 17 to 10 000 nM. Viability compared to untreated control was assessed at 144 h using Cell Titer Glo assay 2.0 (Promega). […] “NT” means the compounds was not tested in the indicated cells.

T3 sequence (P30291 whole entry): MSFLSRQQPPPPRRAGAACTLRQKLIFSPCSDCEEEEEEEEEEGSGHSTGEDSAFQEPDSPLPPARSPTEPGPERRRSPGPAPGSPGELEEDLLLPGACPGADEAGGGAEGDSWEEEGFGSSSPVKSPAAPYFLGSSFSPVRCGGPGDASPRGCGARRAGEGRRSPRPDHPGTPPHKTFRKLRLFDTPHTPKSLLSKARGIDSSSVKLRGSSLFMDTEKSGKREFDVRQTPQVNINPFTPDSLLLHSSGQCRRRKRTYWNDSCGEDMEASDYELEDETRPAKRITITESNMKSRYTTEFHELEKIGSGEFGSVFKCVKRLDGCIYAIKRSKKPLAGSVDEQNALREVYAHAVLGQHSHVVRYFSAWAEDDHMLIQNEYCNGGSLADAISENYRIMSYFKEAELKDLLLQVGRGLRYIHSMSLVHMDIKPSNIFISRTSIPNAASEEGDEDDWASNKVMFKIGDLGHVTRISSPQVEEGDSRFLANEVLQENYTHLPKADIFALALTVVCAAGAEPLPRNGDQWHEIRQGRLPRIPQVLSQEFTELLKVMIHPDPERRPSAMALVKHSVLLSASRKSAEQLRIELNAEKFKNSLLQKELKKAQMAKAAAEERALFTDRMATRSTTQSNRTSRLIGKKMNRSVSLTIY
T2 sequence (P30291 whole entry): as above

IC50 [1] | IC50 [2] | EC50 [3] | EC50 (ACHN cells) | Compound
< 20 nM | < 10 nM | < 100 nM | ≤ 100 nM | C=CCn1c(=O)c2cnc(Nc3ccc(OCC(F)(F)F)cc3)nc2n1-c1cccc(OC2CCNCC2)n1 [Compound 227, 2-allyl-1-[6-(4-piperidyloxy)-2-pyridyl]-6-[p-(2,2,2-trifluoroethoxy)phenylamino]-1,2-dihydro-3H-1,2,5,7-tetraazainden-3-one]
20 to 100 nM | < 10 nM | < 100 nM | ≤ 100 nM | CCn1c(=O)c2cnc(Nc3ccc4c(c3)ncn4C)nc2n1-c1cccc(OC2CCN(C)CC2)n1 [Compound 235, 2-ethyl-6-((1-methyl-1H-benzo[d]imidazol-5-yl)amino)-1-(6-((1-methylpiperidin-4-yl)oxy)pyridin-2-yl)-1,2-dihydro-3H-pyrazolo[3,4-d]pyrimidin-3-one]
20 to 100 nM | < 10 nM | 100 to 500 nM | 100 to 500 nM | C=CCn1c(=O)c2cnc(Nc3ccc4ccncc4c3)nc2n1-c1cccc(OC2CCNCC2)n1 [Compound 240, 2-allyl-6-(7-isoquinolylamino)-1-[6-(4-piperidyloxy)-2-pyridyl]-1,2-dihydro-3H-1,2,5,7-tetraazainden-3-one]
< 20 nM | < 10 nM | < 100 nM | 100 to 500 nM | C=CCn1c(=O)c2cnc(Nc3ccc4scnc4c3)nc2n1-c1cccc(OC2CCNCC2)n1 [Compound 246, 2-allyl-6-(benzo[d]thiazol-5-ylamino)-1-(6-(piperidin-4-yloxy)pyridin-2-yl)-1,2-dihydro-3H-pyrazolo[3,4-d]pyrimidin-3-one]
20 to 100 nM | < 10 nM | < 100 nM | 100 to 500 nM | C=CCn1c(=O)c2cnc(Nc3ccc(OCC(F)(F)F)cc3)nc2n1-c1ccnc(OC2CCNCC2)n1 [Compound 252, 2-allyl-1-(2-(piperidin-4-yloxy)pyrimidin-4-yl)-6-((4-(2,2,2-trifluoroethoxy)phenyl)amino)-1,2-dihydro-3H-pyrazolo[3,4-d]pyrimidin-3-one]
> 500 nM | < 10 nM | < 100 nM | 100 to 500 nM | CCn1c(=O)c2cnc(Nc3ccc4c(cnn4C)c3)nc2n1-c1cccc(NC2CCN(C)CC2)n1 [Compound 288, 2-ethyl-6-[(1-methyl-1H-indazol-5-yl)amino]-1-{6-[(1-methylpiperidin-4-yl)amino]pyridin-2-yl}-1H,2H,3H-pyrazolo[3,4-d]pyrimidin-3-one]
100 to 500 nM | < 10 nM | < 100 nM | 100 to 500 nM | CCn1c(=O)c2cnc(Nc3cccc(C)c3)nc2n1-c1cccc(OC2CCN(C)CC2)n1 [Compound 289, 2-ethyl-1-[6-(1-methyl-4-piperidyloxy)-2-pyridyl]-6-m-toluidino-1,2-dihydro-3H-1,2,5,7-tetraazainden-3-one]
100 to 500 nM | < 10 nM | 100 to 500 nM | 100 to 500 nM | CCn1c(=O)c2cnc(Nc3ccc(F)cc3)nc2n1-c1cccc(OC2CCN(C)CC2)n1 [Compound 290, 2-ethyl-6-(p-fluorophenylamino)-1-[6-(1-methyl-4-piperidyloxy)-2-pyridyl]-1,2-dihydro-3H-1,2,5,7-tetraazainden-3-one]
20 to 100 nM | < 10 nM | < 100 nM | ≤ 100 nM | C=CCn1c(=O)c2cnc(Nc3cncc(C)c3)nc2n1-c1cccc(OC2CCN(C)CC2)n1 [Compound 292, 1-{6-[(1-methylpiperidin-4-yl)oxy]pyridin-2-yl}-6-[(5-methylpyridin-3-yl)amino]-2-(prop-2-en-1-yl)-1H,2H,3H-pyrazolo[3,4-d]pyrimidin-3-one]
100 to 500 nM | < 10 nM | 100 to 500 nM | 100 to 500 nM | CCn1c(=O)c2cnc(Nc3cccc(C)c3)nc2n1-c1cccc(OC2CCNCC2)n1 [Compound 298, 2-ethyl-1-[6-(4-piperidyloxy)-2-pyridyl]-6-m-toluidino-1,2-dihydro-3H-1,2,5,7-tetraazainden-3-one]
20 to 100 nM | < 10 nM | < 100 nM | ≤ 100 nM | C=CCn1c(=O)c2cnc(Nc3ccc(C#N)cc3)nc2n1-c1cccc(OC2CCN(C)CC2)n1 [Compound 301, p-{2-allyl-1-[6-(1-methyl-4-piperidyloxy)-2-pyridyl]-3-oxo-1,2-dihydro-3H-1,2,5,7-tetraazainden-6-ylamino}benzonitrile]
20 to 100 nM | < 10 nM | < 100 nM | 100 to 500 nM | C=CCn1c(=O)c2cnc(Nc3ccc(F)cc3)nc2n1-c1cccc(OC2CCNCC2)n1 [Compound 304, 2-allyl-6-(p-fluorophenylamino)-1-[6-(4-piperidyloxy)-2-pyridyl]-1,2-dihydro-3H-1,2,5,7-tetraazainden-3-one]
20 to 100 nM | < 10 nM | < 100 nM | ≤ 100 nM | C=CCn1c(=O)c2cnc(Nc3cccc(C#N)c3)nc2n1-c1cccc(OC2CCN(C)CC2)n1 [Compound 305, m-{2-allyl-1-[6-(1-methyl-4-piperidyloxy)-2-pyridyl]-3-oxo-1,2-dihydro-3H-1,2,5,7-tetraazainden-6-ylamino}benzonitrile]
20 to 100 nM | < 10 nM | 100 to 500 nM | 100 to 500 nM | CCn1c(=O)c2cnc(Nc3ccc4c(cnn4C)c3)nc2n1-c1cccc(OC2CCNCC2)n1 [Compound 306, 2-ethyl-6-(1-methyl-1H-indazol-5-ylamino)-1-[6-(4-piperidyloxy)-2-pyridyl]-1,2-dihydro-3H-1,2,5,7-tetraazainden-3-one]
20 to 100 nM | < 10 nM | 100 to 500 nM | 100 to 500 nM | CCn1c(=O)c2cnc(Nc3ccc(C#N)cc3)nc2n1-c1cccc(OC2CCN(C)CC2)n1 [Compound 310, p-{2-ethyl-1-[6-(1-methyl-4-piperidyloxy)-2-pyridyl]-3-oxo-1,2-dihydro-3H-1,2,5,7-tetraazainden-6-ylamino}benzonitrile]
100 to 500 nM | < 10 nM | < 100 nM | 100 to 500 nM | C=CCn1c(=O)c2cnc(Nc3ccc(F)cc3)nc2n1-c1ccnc(NC2CCN(C)CC2)n1 [Compound 312, 2-allyl-6-(p-fluorophenylamino)-1-[2-(1-methyl-4-piperidylamino)-4-pyrimidinyl]-1,2-dihydro-3H-1,2,5,7-tetraazainden-3-one]
20 to 100 nM | < 10 nM | < 100 nM | ≤ 100 nM | C=CCn1c(=O)c2cnc(Nc3ccc(OCC(F)(F)F)cc3)nc2n1-c1ccnc(NC2CCN(C)CC2)n1 [Compound 314, 2-allyl-1-[2-(1-methyl-4-piperidylamino)-4-pyrimidinyl]-6-[p-(2,2,2-trifluoroethoxy)phenylamino]-1,2-dihydro-3H-1,2,5,7-tetraazainden-3-one]

Compound | IC50 [1] | IC50 [2] | EC50 [3] | EC50 (ACHN cells)
C=CCn1c(=O)c2cnc(Nc3ccc(OCC(C)C)cc3)nc2n1-c1cccc(OC2CCNCC2)n1 [Compound 256, 2-allyl-6-((4-isobutoxyphenyl)amino)-1-(6-(piperidin-4-yloxy)pyridin-2-yl)-1,2-dihydro-3H-pyrazolo[3,4-d]pyrimidin-3-one] | < 20 nM | < 10 nM | < 100 nM | ≤ 100 nM
